Data taken from ChEMBL document CHEMBL1201862, “PubChem BioAssay data set” (2004).
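In this assay, cells in 96-well plates receive the compound at five concentrations for 48 hours. Endpoints are linearly interpolated between the surrounding concentrations. At the GI50, growth is halved.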 Calls of active or inactive are those of the source. Rule as the data show it: active = GI50 up to about 1.1 µM and inactive = higher.

Columns and labels:
Assay in all cases: NCI anticancer screen, dose series, 48 h
[1] = tested on: HT-29
[2] = tested on: HL-60
[3] = tested on: SNB-19
[4] = tested on: LOX IMVI
[5] = tested on: SR
[6] = tested on: KM12
[7] = tested on: OVCAR-4
[8] = tested on: UO-31
[9] = tested on: MOLT-4
[10] = tested on: ACHN
[11] = tested on: NCI-H226
[12] = tested on: CCRF-CEM
[13] = tested on: NCI-H460
[14] = tested on: HOP-92
[15] = tested on: TK-10
[16] = tested on: SN12C
[17] = tested on: COLO 205
[18] = tested on: DLD-1
[19] = tested on: A549
[20] = tested on: OVCAR-3
[21] = tested on: RXF 631
[22] = tested on: SF-539
[23] = tested on: M19-MEL
[24] = tested on: OVCAR-8
[25] = tested on: NCI-H23
[26] = tested on: SK-MEL-5
[27] = tested on: EKVX
[28] = tested on: CAKI-1
[29] = tested on: HOP-18
[30] = tested on: HCT-116
[31] = tested on: LXFL 529
[32] = tested on: UACC-62
[33] = tested on: XF498
[34] = tested on: HCC 2998
[35] = tested on: HOP-62
[36] = tested on: Malme-3M
[37] = tested on: SF-295
[38] = tested on: M14
[39] = tested on: DMS-273
[40] = tested on: SNB-75
[41] = tested on: SW-620
[42] = tested on: IGROV-1
[43] = tested on: SF-268
[44] = tested on: KM-20L2
[45] = tested on: 786-0
[46] = tested on: SK-MEL-28
[47] = tested on: HCT-15
[48] = tested on: DMS-114
[49] = tested on: SK-OV-3
[50] = tested on: NCI-H522
[51] = tested on: UACC-257
[52] = tested on: RXF 393
[53] = tested on: RPMI-8226
[54] = tested on: MCF7
[55] = tested on: MDA-MB-231
[56] = tested on: MDA-MB-435
[57] = tested on: NCI/ADR-RES
[58] = tested on: MDA-N
[59] = tested on: Hs-578T
[60] = tested on: U-251
[61] = tested on: OVCAR-5
[62] = tested on: K562
[63] = tested on: BT-549
[64] = tested on: SK-MEL-2
[65] = tested on: SNB-78
[66] = tested on: T47D
[67] = tested on: DU-145
[68] = tested on: A498
[69] = tested on: PC-3

Q: For `COC(=O)C(=O)C(C(=O)C(=O)Nc1cc([N+](=O)[O-])ccc1C#N)c1nc2ccccc2nc1O` (stereo not given), which GI50 [1] is on record?
A: > 100 µM (inactive)

Q: And the GI50 [2]?
A: > 100 µM (inactive)

Q: What about the GI50 [3] of the same compound?
A: > 100 µM (inactive)

Q: What about the GI50 [4] of the same compound?
A: > 100 µM (inactive)

Q: What about the GI50 [5] of the same compound?
A: > 100 µM (inactive)

Q: What about the GI50 [6] of the same compound?
A: > 100 µM (inactive)

Q: And the GI50 [7]?
A: > 100 µM (inactive)

Q: What about the GI50 [8] of the same compound?
A: 99.3 µM (inactive)

Q: And the GI50 [9]?
A: > 100 µM (inactive)

Q: And the GI50 [10]?
A: > 100 µM (inactive)

Q: What about the GI50 [11] of the same compound?
A: > 100 µM (inactive)

Q: What about the GI50 [12] of the same compound?
A: > 100 µM (inactive)

Q: What about the GI50 [13] of the same compound?
A: > 100 µM (inactive)

Q: And the GI50 [14]?
A: 40.6 µM (inactive)

Q: And the GI50 [15]?
A: > 100 µM (inactive)

Q: And the GI50 [16]?
A: > 100 µM (inactive)

Q: And the GI50 [17]?
A: > 100 µM (inactive)

Q: What about the GI50 [18] of the same compound?
A: > 100 µM (inactive)

Q: What about the GI50 [19] of the same compound?
A: > 100 µM (inactive)

Q: And the GI50 [20]?
A: > 100 µM (inactive)

Q: What about the GI50 [21] of the same compound?
A: > 100 µM (inactive)

Q: What about the GI50 [22] of the same compound?
A: > 100 µM (inactive)

Q: What about the GI50 [23] of the same compound?
A: > 100 µM (inactive)

Q: What about the GI50 [24] of the same compound?
A: > 100 µM (inactive)

Q: What about the GI50 [25] of the same compound?
A: > 100 µM (inactive)

Q: And the GI50 [26]?
A: > 100 µM (inactive)

Q: What about the GI50 [27] of the same compound?
A: 35.5 µM (inactive)

Q: And the GI50 [28]?
A: > 100 µM (inactive)

Q: And the GI50 [29]?
A: > 100 µM (inactive)

Q: What about the GI50 [30] of the same compound?
A: > 100 µM (inactive)

Q: And the GI50 [31]?
A: > 100 µM (inactive)

Q: And the GI50 [32]?
A: > 100 µM (inactive)

Q: And the GI50 [33]?
A: > 100 µM (inactive)

Q: And the GI50 [34]?
A: > 100 µM (inactive)

Q: And the GI50 [35]?
A: > 100 µM (inactive)

Q: And the GI50 [36]?
A: > 100 µM (inactive)

Q: What about the GI50 [37] of the same compound?
A: > 100 µM (inactive)

Q: What about the GI50 [38] of the same compound?
A: > 100 µM (inactive)

Q: What about the GI50 [39] of the same compound?
A: > 100 µM (inactive)

Q: What about the GI50 [40] of the same compound?
A: > 100 µM (inactive)

Q: What about the GI50 [41] of the same compound?
A: > 100 µM (inactive)

Q: What about the GI50 [42] of the same compound?
A: > 100 µM (inactive)

Q: What about the GI50 [43] of the same compound?
A: > 100 µM (inactive)

Q: And the GI50 [44]?
A: > 100 µM (inactive)

Q: What about the GI50 [45] of the same compound?
A: > 100 µM (inactive)

Q: And the GI50 [46]?
A: > 100 µM (inactive)

Q: What about the GI50 [47] of the same compound?
A: > 100 µM

Q: And the GI50 [48]?
A: > 100 µM (inactive)

Q: And the GI50 [49]?
A: > 100 µM (inactive)

Q: What about the GI50 [50] of the same compound?
A: > 100 µM (inactive)

Q: What about the GI50 [51] of the same compound?
A: > 100 µM (inactive)

Q: And the GI50 [52]?
A: > 100 µM (inactive)

Q: `Cc1cc2c(cc1C)[n+]([O-])c(C(=O)/C=C/c1ccc3c(c1)OCO3)c(C)[n+]2[O-]` was tested. Which GI50 [1] did it give?
A: > 100 µM (inactive)

Q: What about the GI50 [2] of the same compound?
A: > 100 µM (inactive)

Q: What about the GI50 [53] of the same compound?
A: > 100 µM (inactive)

Q: And the GI50 [3]?
A: 27.5 µM (inactive)

Q: And the GI50 [54]?
A: > 100 µM (inactive)

Q: And the GI50 [4]?
A: 36.7 µM (inactive)

Q: What about the GI50 [5] of the same compound?
A: > 100 µM (inactive)

Q: And the GI50 [6]?
A: > 100 µM (inactive)

Q: And the GI50 [55]?
A: > 48.9 µM (inactive)

Q: And the GI50 [7]?
A: > 100 µM (inactive)

Q: What about the GI50 [8] of the same compound?
A: > 100 µM (inactive)

Q: What about the GI50 [56] of the same compound?
A: > 100 µM (inactive)

Q: And the GI50 [57]?
A: 74.6 µM (inactive)

Q: What about the GI50 [58] of the same compound?
A: > 100 µM (inactive)

Q: What about the GI50 [9] of the same compound?
A: > 100 µM (inactive)

Q: And the GI50 [10]?
A: 40.9 µM (inactive)

Q: What about the GI50 [11] of the same compound?
A: 86.5 µM (inactive)

Q: And the GI50 [12]?
A: > 100 µM (inactive)

Q: What about the GI50 [13] of the same compound?
A: > 91.8 µM (inactive)

Q: And the GI50 [14]?
A: 25.6 µM (inactive)

Q: And the GI50 [15]?
A: 23.9 µM (inactive)

Q: And the GI50 [16]?
A: > 78.7 µM (inactive)

Q: And the GI50 [17]?
A: > 100 µM (inactive)

Q: What about the GI50 [59] of the same compound?
A: 26.2 µM (inactive)

Q: And the GI50 [18]?
A: > 100 µM (inactive)

Q: And the GI50 [19]?
A: > 92.9 µM (inactive)

Q: What about the GI50 [20] of the same compound?
A: > 86.1 µM (inactive)

Q: What about the GI50 [21] of the same compound?
A: 10.1 µM (inactive)

Q: What about the GI50 [22] of the same compound?
A: 56.4 µM (inactive)

Q: What about the GI50 [23] of the same compound?
A: > 100 µM (inactive)

Q: And the GI50 [24]?
A: > 100 µM (inactive)

Q: What about the GI50 [25] of the same compound?
A: 38.3 µM (inactive)

Q: And the GI50 [26]?
A: > 100 µM (inactive)

Q: And the GI50 [60]?
A: 25.4 µM (inactive)

Q: What about the GI50 [27] of the same compound?
A: > 70 µM (inactive)

Q: What about the GI50 [28] of the same compound?
A: 61.1 µM (inactive)

Q: And the GI50 [29]?
A: > 100 µM (inactive)

Q: What about the GI50 [30] of the same compound?
A: 53.8 µM (inactive)

Q: And the GI50 [61]?
A: > 100 µM (inactive)

Q: And the GI50 [62]?
A: > 100 µM (inactive)

Q: And the GI50 [32]?
A: 29.9 µM (inactive)

Q: What about the GI50 [33] of the same compound?
A: 27 µM (inactive)

Q: What about the GI50 [34] of the same compound?
A: > 78.5 µM (inactive)

Q: What about the GI50 [63] of the same compound?
A: 69.3 µM (inactive)

Q: What about the GI50 [35] of the same compound?
A: 21 µM (inactive)

Q: What about the GI50 [64] of the same compound?
A: 27.9 µM (inactive)

Q: What about the GI50 [36] of the same compound?
A: 73.1 µM (inactive)

Q: What about the GI50 [65] of the same compound?
A: 60.3 µM (inactive)

Q: What about the GI50 [37] of the same compound?
A: 21.1 µM (inactive)

Q: What about the GI50 [38] of the same compound?
A: 98.9 µM (inactive)

Q: What about the GI50 [39] of the same compound?
A: 27 µM (inactive)

Q: And the GI50 [40]?
A: 19.7 µM (inactive)

Q: What about the GI50 [41] of the same compound?
A: > 100 µM (inactive)

Q: What about the GI50 [42] of the same compound?
A: 48.4 µM (inactive)

Q: And the GI50 [66]?
A: > 86.1 µM (inactive)

Q: What about the GI50 [67] of the same compound?
A: > 80.5 µM (inactive)

Q: And the GI50 [43]?
A: 29.4 µM (inactive)

Q: And the GI50 [44]?
A: > 100 µM (inactive)

Q: And the GI50 [45]?
A: 36.6 µM (inactive)

Q: What about the GI50 [46] of the same compound?
A: > 100 µM (inactive)

Q: And the GI50 [47]?
A: > 100 µM

Q: And the GI50 [68]?
A: 71.6 µM (inactive)

Q: And the GI50 [48]?
A: 33.1 µM (inactive)

Q: What about the GI50 [49] of the same compound?
A: 19.8 µM (inactive)

Q: What about the GI50 [50] of the same compound?
A: 27.6 µM (inactive)

Q: And the GI50 [51]?
A: > 88.7 µM (inactive)

Q: What about the GI50 [52] of the same compound?
A: 28.7 µM (inactive)

Q: And the GI50 [69]?
A: > 100 µM (inactive)
